US5112833A, “1-azaindolizine derivatives, synthetic intermediates thereof and antiallergic agents containing 1-azaindolizine derivatives” (Zenyaku Kogyo Kabushiki Kaisha, priority 1988, dated 1992)
Where a name gives a salt, the structure may show the parent alone.

How the values were obtained:
[1] = system: homologous passive cutaneous anaphylaxis (PCA) reaction; test: Inhibition of homologous passive cutaneous anaphylaxis (PCA) reaction; format: in vivo, male Wistar rats; details: Rattus norvegicus, 0.5 h, rats, read-out: Inhibition (%) of leaked amount of dye in PCA reaction; for inhibition in vivo at 20 mg/kg: intravenous, immediately before ovalbumin challenge, *P < 0.02, **P < 0.005
Method: The antiallergic action of the compounds of the present invention obtained by the above-mentioned preparation process was examining by the following inhibition test of homologous passive cutaneous anaphylaxis (PCA) reaction on rats.
Antiserum was obtained from rats that were immunized with ovalbumin according to the method of Mota [Immunology, 7, 681-699 (1964)]. The antiserum was diluted with physiological saline to make PCA reaction of approximately 10-15 mm in diameter. Groups of 5 male Wistar rats, 8 weeks old and weighing between 200-250 g, were passively sensitized with 0.1 ml of the diluted antiserum injected intradermally in the shaved area on the back. Fourty-eight hours after the sensitization, each above sample dissolved into physiological saline was injected into the rats intravenously via tail vein. Immediately after injection of the sample, rats were challenged with the physiological saline solution containing ovalbumin (25 mg/kg/head) and Evans blue (12.5 mg/kg/head) intravenously via tail vein so as to generate PCA reaction. Thirty minutes after the accomplishment of the challenge, the rats were exsanguinated and removed the skins from the back. The amount of the dye leaked out of the vessels was measured by the method of Katayama et al. [Microbiol. Immunol. 22, 89-101 (1978)].
The effects of samples on PCA reaction were expressed as percentage of inhibition of the leaked amount of the dye calculated by the following equation: [formula] where C is the mean leaked amount of the dye in control group, S is the mean leaked amount of dye in sample treated group. The results of the experiments were shown in Table 1, which included the effect of DSCG used as a positive control.

[2] = Acute toxicity test (LD50); details: mouse, in vivo; intravenous via tail vein, male ICR mice, 10 days' observation
Method: Acute toxicity tests of the compounds of the present invention were carried out as described below. Groups of 5 male ICR mice, 5 weeks old and weighing 30±5 g, were used. The samples dissolved in physiological saline were injected intravenously via tail vein of the mice. Each LD50 was determined through 10 days' observation.

Structure (SMILES) | inhibition in vivo at 10 mg/kg ([1]; iv, 10 mg/kg, positive control, **P < 0.005) | inhibition in vivo at 20 mg/kg [1] | LD50 at 240 h [2]
O=C(O)c1cc(=O)c2c(OCC(O)COc3cccc4oc(C(=O)O)cc(=O)c34)cccc2o1 [DSCG, disodium chromoglycate, reference compound] | 75% | – | –
COc1nc2ccc(C)cn2c1C=C(C#N)C(=O)O [Sample 1, Sodium salt of 3-(2-carboxy-2-cyanovinyl)-2-methoxy-6-methylimidazo[1,2-a]pyridine] | – | 52.6% | –
Cc1cccn2c(C=C(C#N)C(=O)O)c(OC(C)C)nc12 [Sample 2, Sodium salt of 3-(2-carboxy-2-cyanovinyl)-2-isopropoxy-8-methylimidazo[1,2-a]pyridine] | – | 68.4% | ~150 mg/kg
COc1cccn2c(C=C(C#N)C(=O)O)c(OC(C)C)nc12 [Sample 3, Sodium salt of 3-(2-carboxy-2-cyanovinyl)-2-isopropoxy-8-methoxyimidazo[1,2-a]pyridine] | – | 90% | ~350 mg/kg
CCOc1cccn2c(C=C(C#N)C(=O)O)c(OC(C)C)nc12 [Sample 4, Sodium salt of 3-(2-carboxy-2-cyanovinyl)-8-ethoxy-2-isopropoxyimidazo[1,2-a]pyridine] | – | 85.4% | –
CC(C)Oc1nc2c(OC(C)C)cccn2c1C=C(C#N)C(=O)O [Sample 5, Sodium salt of 3-(2-carboxy-2-cyanovinyl)-2,8-diisopropoxyimidazo[1,2-a]pyridine] | – | 94.6% | ~220 mg/kg
CCCCOc1nc2c(C)cccn2c1C=C(C#N)C(=O)O [Sample 6, Sodium salt of 2-butoxy-3-(2-carboxy-2-cyanovinyl)-8-methylimidazo[1,2-a]pyridine] | – | 69.8% | –
Cc1ccn2c(C=C(C#N)C(=O)O)c(OCC(C)C)nc2c1 [Sample 7, Sodium salt of 3-(2-carboxy-2-cyanovinyl)-2-isobutoxy-7-methylimidazo[1,2-a]pyridine] | – | 65.8% | –
CCC(C)Oc1nc2c(C)cccn2c1C=C(C#N)C(=O)O (stereo not drawn) [Sample 8, Sodium salt of 3-(2-carboxy-2-cyanovinyl)-8-methyl-2-secbutoxyimidazo[1,2-a]pyridine] | – | 80.4% | –
CCOc1cccn2c(C=C(C#N)C(=O)O)c(OC(C)CC)nc12 (stereo not drawn) [Sample 9, Sodium salt of 3-(2-carboxy-2-cyanovinyl)-8-ethoxy-2-secbutoxyimidazo[1,2-a]pyridine] | – | 75.3% | –
CCC(C)Oc1nc2c(OC(C)C)cccn2c1C=C(C#N)C(=O)O (stereo not drawn) [Sample 10, Sodium salt of 3-(2-carboxy-2-cyanovinyl)-8-isopropoxy-2-secbutoxyimidazo[1,2-a]pyridine] | – | 92.5% | –
CCCCCCOc1nc2c(C)cccn2c1C=C(C#N)C(=O)O [Sample 11, Sodium salt of 3-(2-carboxy-2-cyanovinyl)-2-hexyloxy-8-methylimidazo[1,2-a]pyridine] | – | 75.7% | –
C=CCCOc1nc2c(C)cccn2c1C=C(C#N)C(=O)O [Sample 12, Sodium salt of 2-(3-butenyloxy)-3-(2-carboxy-2-cyanovinyl)-8-methylimidazo[1,2-a]pyridine] | – | 68.9% | –
Cc1cccn2c(C=C(C#N)C(=O)O)c(OCCCO)nc12 [Sample 13, Sodium salt of 3-(2-carboxy-2-cyanovinyl)-2-(3-hydroxypropoxy)-8-methylimidazo[1,2-a]pyridine] | – | 64.3% | –
CC(=O)NCCCOc1nc2c(C)cccn2c1C=C(C#N)C(=O)O [Sample 14, Sodium salt of 2-(3-acetylaminoproxy)-3-(2-carboxy-2-cyanovinyl)-8-methylimidazo[1,2-a]pyridine] | – | 74.8% | –
Cc1cccn2c(C=C(C#N)C(=O)O)c(OCC3CC3)nc12 [Sample 15, Sodium salt of 3-(2-carboxy-2-cyanovinyl)-2-cyclopropylmethoxy-8-methylimidazo[1,2-a]pyridine] | – | 61.8% | –
COCCOc1nc2c(C)cccn2c1C=C(C#N)C(=O)O [Sample 16, Sodium salt of 3-(2-carboxy-2-cyanovinyl)-2-(2-methoxyethoxy)-8-methylimidazo[1,2-a]pyridine] | – | 68.9% | –
Cc1cccn2c(C=C(C#N)C(=O)O)c(OCCCC#N)nc12 [Sample 17, Sodium salt of 3-(2-carboxy-2-cyanovinyl)-2-(3-cyanoproxy)-8-methylimidazo[1,2-a]pyridine] | – | 71.3% | –
